Assay results from US20130281304A1, “Comprehensive Methylome Map of Myeloid and Lymphoid Commitment from Hematopoietic Proenitors” (priority 2010, published 2013).

Tested on: hematopoietic progenitors (MPP^FL+, CLP, DN1, DN2, DN3)
Assay: OP9:OP9DL1 stromal co-cultures, myeloid versus lymphoid progeny by flow cytometry
Assay type: cell-based, mouse
Settings: 50 nM; for myeloid versus lymphoid progeny: DN3 progenitors; for myeloid versus lymphoid progeny / percentage of myeloid progeny versus lymphoid progeny: 6 days after plating on OP9:OP9DL1 stroma; for percentage of myeloid progeny versus lymphoid progeny: MPP^FL+, CLP, DN1 and DN2 progenitors
Excerpt: FIG. 6 is a series of graphical representations of FACS plots and quantitation of myeloid versus lymphoid progeny. FIG. 6a are representative FACS plots of progeny from hematopoietic progenitors 6 days after plating on OP9:OP9DL1 stroma in the presence or absence of 5-aza-2′deoxycytidine. […] FIG. 6b is a histogram depicting quantitation of myeloid versus lymphoid progeny. The percentage of myeloid versus lymphoid progeny, as defined above, were quantified for each well from the experiment in a. Each bar represents the average of triplicate wells, and the error bars are the standard deviations between wells.
OP9:OP9DL1 stromal co-cultures. 3000 OP9 and 3000 OP9DL1 cells were plated in each well of 96 well plates in MEMa+10% FBS. The next day, 50 double-sorted progenitors were plated per well in the presence of 5 ng/ml IL-7 and F1t3L, and 10 ng/ml IL-3, IL-6, M-CSF, GM-CSF, and G-CSF (PeproTech). 50 nM 5-aza-2′-deoxycytide (Sigma) or vehicle (50% acetic acid) was added to the wells as indicated. At day 3, half of the media plus cytokines and drugs was replaced. At day 6, progeny from each well were stained and analyzed by flow cytometry to identify lymphoid versus myeloid progeny.
To test the hypothesis that reduced methylation preferentially promotes myeloid as opposed to lymphoid differentiation, an in vitro assay system that promotes both myeloid and lymphoid development was used (as in Engel et al., Epigenetics. 2009;4:98-99 and Bell et al., Nature. 2008;452:764-767). […] It evident that inhibiting DNA methylation promotes myeloid versus lymphoid specification, providing a mechanism for the myeloid skewing observed in Dnmt1 hypomorphs.

[1] = listed as 5-aza-2′deoxycytidine

## Nc1ncn([C@H]2C[C@H](O)[C@@H](CO)O2)c(=O)n1 [5-aza-2′-deoxycytidine]
DN1 cells, 6 days
  myeloid skewing, compared between progenitor populations: most pronounced in DN1 cells
  myeloid versus lymphoid progeny: remained lymphoid committed
  percentage of myeloid progeny versus lymphoid progeny: increased at the expense of lymphoid progeny
[1]
  myeloid versus lymphoid progeny: continued to generate an exclusively lymphoid readout
  percentage of myeloid progeny versus lymphoid progeny: trended towards generating more myeloid progeny
DN3 wells, 6 days
  cell expansion: inhibited cell expansion
